What all share (experiment): NCI tumour cell line growth inhibition, 48 h
Test [1] deals with KM12 colon.
The subject of test [2] is SNB-75 CNS.
Test [3] has as its system NCI/ADR-RES ovarian.
Test [4] deals with HOP-92 NSCLC.
The subject of test [5] is SK-OV-3 ovarian.
The test system of test [6] is SN12C renal.
The test system of test [7] is NCI-H23 lung.
Test [8] deals with MDA-MB-231 breast.
The test system of test [9] is PC-3 prostate.
Test [10] relates to CCRF-CEM leukemia.

Where “and” joins values, the source holds several entries; their conditions need not be identical. Equal values may be shown once.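 Following 48 hours of exposure in 96-well plates, responses at five concentrations were used to interpolate endpoints linearly. Abbreviation: GI50, concentration required for 50% inhibition of growth. At the TGI there is no net growth.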 A value given as a limit tells only on which side of the number the result lay.

As for `Cc1ccc(S(=O)(=O)c2scc(-c3ccccc3)c2C)cc1`, the TGI in test [1], in [2], in test [3], in test [4], in [5] and in [6] was more than 100 µM throughout. The TGI in test [7], in [8] and in test [9] was more than 100 µM throughout.

As for `FC(F)(F)c1ccc(-c2nc(-c3nc4cc(Cl)c(Cl)cc4[nH]3)c3ccccn23)cc1`, the GI50 in [10] was more than 100 µM; in test [2] it was 1.45 µM; in test [3], 6.1 µM; in [4] it was 2.97 µM; in test [6], more than 100 µM; in test [7], 6.57 µM. The GI50 in [8] is 2.49 µM. In addition, the TGI in test [10] is more than 100 µM; in [2], 4.3 µM; in test [3], more than 100 µM; in test [4] it was 28.7 µM; in test [6], more than 100 µM; in test [7] it was more than 100 µM. Besides, the TGI in test [8] is more than 100 µM.

Turning to `CN(C)CC(/C(Cc1ccccc1)=N\NC(=O)C[n+]1ccccc1)c1ccccc1` (configuration not stated), the TGI in test [10], in test [1], in test [2], in [4], in test [5] and in test [6] was more than 100 µM each time. In test [7], the TGI is more than 100 µM.

Regarding `[O-]/[N+](=C\c1ccccc1)[C@H](COCc1ccccc1)c1ccccc1`, the TGI in [10] is more than 100 µM; in [1], more than 100 µM; in test [2], more than 100 µM; in test [4], 92.7 µM; in test [5], more than 100 µM; in test [7], more than 100 µM.

Consider `C1=C(c2ccccc2)CN(c2ccccc2)OC1`, for which the TGI in test [10], in [1], in test [2], in test [5], in test [6] and in test [7] was more than 100 µM in each case.

Consider `O=C1C=CC2CCC1C2` (configuration not stated), for which the TGI in test [10] was more than 100 µM; in test [1], more than 100 µM; in [2], more than 100 µM; in test [3], more than 100 µM; in [5] it was 72.4 µM; in [6], more than 100 µM. The TGI in test [7], in test [8] and in [9] was more than 100 µM in each case.

Regarding `Cc1ccc(S(=O)(=O)N/N=C/c2oc(-c3cccc([N+](=O)[O-])c3)c(-c3cccc([N+](=O)[O-])c3)c2[N+](=O)[O-])cc1`, the TGI was 56.8 µM in test [10]; more than 100 µM in test [1]; more than 100 µM in test [2]; more than 100 µM in test [4]; 68.5 µM in test [5]; more than 100 µM in test [6]. Moreover, the TGI in test [7] is more than 100 µM.

As for `CC(=O)NC1C(OCc2ccccc2)OC(CO)C(O)C1OCC(=O)NC(C)C(=O)NC(CCC(=O)NCCCCNc1ccc([N+](=O)[O-])c2[nH]c3ccccc3c(=O)c12)C(N)=O` (configuration not stated), the TGI in [1], in test [2], in test [3], in [4], in [5] and in test [6] was more than 100 µM each time. The TGI in [7], in [8] and in [9] was more than 100 µM throughout.

Regarding `CC(=O)OCC1OC(Nc2[nH]c(=O)n(C)c(=O)c2-c2csc(N)n2)C(OC(C)=O)C(OC(C)=O)C1OC(C)=O` (configuration not stated), the TGI in test [10], in [1], in [2], in [4], in test [5] and in test [6] was more than 100 µM each time. Besides, the TGI in test [7] is more than 100 µM.

As to `COc1ccc(-c2nc(N)c(C#N)c3c2CCS(=O)(=O)c2ccc(C)cc2-3)cc1OC`, the TGI was 52.3 µM in [1]; 69.7 µM in test [2]; more than 100 µM in test [3]; more than 100 µM in test [4]; more than 100 µM in test [6]; more than 100 µM in test [7]. The TGI in test [8] and in test [9] was more than 100 µM throughout.

On to `CCN(CC)CCNC(=O)c1ccccc1NC(=O)C(=O)Nc1ccccc1C(=O)NCCN(CC)CC`, for which the TGI in test [10] was 71.9 µM; in [1] it was more than 100 µM; in test [2] it was more than 100 µM; in test [4] it was 98.5 µM; in test [5], more than 100 µM; in test [6] it was more than 100 µM. Further, the TGI in [7] was more than 100 µM.

For the compound `O=C1N[C@H]2c3c(Cl)sc(Cl)c3/C(=N/O)[C@H]2O1`, the TGI in [10], in [1], in test [2], in test [3], in test [5] and in test [6] was more than 100 µM throughout. The TGI in test [8] and in test [9] was more than 100 µM each time.

Take `COc1ccc(/C=C2\CN(C)Cc3c2nc(N)nc3-c2ccc(OC)cc2)cc1`: the TGI in test [10], in test [1], in [2], in [5], in [6] and in test [7] was more than 100 µM in each case.

Turning to `CO/C(=N\N=C\c1cc(OC)ccc1OC)c1ccncc1`, the TGI in [10], in test [1], in test [2], in [3], in [5] and in [6] was more than 10 µM in each case. For the same compound, the TGI in [7] and in [9] was more than 10 µM each time.

As for `O=c1cc(CNC2CCCC2)[nH]c(=O)[nH]1`, the TGI in [10], in test [1], in [2], in [3], in test [5] and in test [6] was more than 100 µM in each case. For the same compound, the TGI in [7], in [8] and in [9] was more than 100 µM throughout.

Consider `O=C(CP(c1ccccc1)c1ccccc1)c1cccc(C(=O)CP(c2ccccc2)c2ccccc2)c1`, for which the TGI in [10], in test [1], in [2], in [3], in test [5] and in test [6] was more than 100 µM throughout. Further, the TGI in test [8] and in test [9] was more than 100 µM each time.

For `C=CCNC(=S)Nc1sc2c(c1C(=O)OCC)CC(C)CC2` (configuration not stated), the TGI in test [1] is more than 100 µM; in [2], 64.7 µM; in [3] it was more than 100 µM; in test [4], more than 100 µM; in test [5] it was 69.4 µM; in test [6] it was 82.8 µM. For the same compound, the TGI in [7] was more than 100 µM; in test [8] it was 57 µM; in [9] it was 50 µM.

Take `C/C=C/[C@@]1(OC(=O)c2ccccc2)C[C@@H]2CCCC[C@@H]21`: the TGI in test [10] came out at 45.4 µM; in test [1], 32.9 µM; in test [2] it was 27.3 µM; in [3], 41.1 µM; in test [5] it was 32.6 µM; in test [6], 36.7 µM. Moreover, the values for the TGI in test [7], in test [8] and in [9] were 31 µM, 36.3 µM and 37 µM, respectively.

`O=C(c1ccccc1)c1ccc2c(c1)nc1n2C(c2c(Cl)cccc2Cl)SC1` (configuration not stated): the TGI in [1], in [2], in test [3], in [4], in test [5] and in test [6] was more than 100 µM throughout. For the same compound, the TGI in [7], in test [8] and in test [9] was more than 100 µM each time.

`O=C(O)CCCl`: the TGI in test [10], in test [1], in test [2], in test [4], in test [5] and in test [6] was more than 5000 µM throughout. The compound also returned a TGI in test [7] of more than 5000 µM.

In the case of `COc1ccc2oc(=N)c(C(=O)Nc3cccc4ccccc34)cc2c1`, the TGI in test [10] was more than 100 µM; in [1] it was more than 100 µM; in test [2] it was 32.9 µM; in [3] it was more than 100 µM; in test [5], 92.7 µM; in test [6] it was more than 100 µM. The TGI in [7] is more than 100 µM; in test [8], 79.1 µM; in [9], 31.1 µM.

`O=C(CSc1nnc(-c2ccc(N=Cc3ccc(Cl)cc3)cc2)o1)Nc1ccccc1Cl`: the TGI in test [10], in test [1], in test [2], in test [5] and in test [7] was more than 100 µM throughout.

As for `O=C(Nc1c(O)[nH]c(=S)[nH]c1=O)c1ccccn1`, the TGI in test [10], in test [1], in test [2], in [4], in test [5] and in [6] was more than 100 µM throughout. The compound further showed a TGI in test [7] of more than 100 µM.

Take `COc1cccc2c1OC1c3ccccc3OCC1C2` (configuration not stated): the TGI in test [10] was more than 100 µM; in test [1], more than 100 µM; in test [2], 20.6 µM; in test [3], more than 100 µM; in test [5] it was more than 100 µM; in test [6], more than 100 µM. The TGI in test [7], in test [8] and in test [9] was more than 100 µM each time.

As for `O=C(O)c1ccccc1.[Ag]`, the TGI is 47.3 µM in test [1]; 11.3 µM in test [2]; more than 100 µM in [3]; 41.3 µM in test [4]; 31.2 µM in test [5]; 51 µM in [6]. In addition, the values for the TGI in test [7] and in test [9] were 54.5 µM and 29.8 µM, respectively.

On to `C1OCC2S[C@@H]3COCO[C@@H]3C2O1` (some centres not stated), for which the TGI in [10], in test [1], in [2], in [5], in [6] and in test [7] was more than 100 µM throughout.

In the case of `COc1cc(/C=C/C(=O)OCC23CC[C@@]4(C(=O)O)CCC(C)[C@H](C)C4C2=CCC2[C@@]4(C)CC[C@H](O)C(C)(C)C4CC[C@]23C)ccc1O` (some centres not stated), the TGI was 22.3 µM in [10]; more than 100 µM in test [1]; 44.9 µM in test [3]; 83.4 µM in test [5]; 67.8 µM in [6]; 15.6 µM in [7]. Further, the TGI in test [8] was more than 100 µM; in test [9], 41.5 µM.

In the case of `S=c1sc2c(Cl)ncnc2n1-c1ccccc1`, the TGI in [1] came to 31 µM; in test [2], 27.4 µM; in test [4], 34.3 µM; in test [5], 34.3 µM; in test [6], 29.4 µM; in test [7], 31.7 µM.

As for `C=C1C(=O)OC2/C=C(\C)C(OC(C)=O)C3OC3C(C)(O)CC(OC(=O)/C(C)=C/C)C12` (configuration not stated), the TGI came out at 9.45 µM in [10]; 28.7 µM in test [1]; 97.4 µM in [2]; 23.5 µM in test [4]; 34.5 µM in test [5]; 47.4 µM in test [6]. This compound also showed a TGI in [7] of 34.4 µM.

As to `CCC1(O)CC(OC2CC(N(C)C)C(OC3CC4OC5CC(=O)C(C)OC5OC4C(C)O3)C(C)O2)c2c(cc3c(c2O)C(=O)c2c(O)ccc(O)c2C3=O)C1C(=O)OC` (configuration not stated), the GI50 in test [3] was 0.00629 µM and 0.0109 µM and < 0.0105 µM. Also, the TGI in test [3] is 0.0943 µM and 0.224 µM and 0.171 µM; in test [4], 0.0828 µM and 0.0644 µM; in [9], 0.0576 µM and 0.15 µM.

Take `O=C(CSCC(=O)N/N=C/c1cc(I)cc(I)c1O)N/N=C/c1cc(I)cc(I)c1O`: the TGI in test [1] was 88.2 µM; in test [2], 19.5 µM; in test [3], 59.9 µM; in test [4] it was more than 100 µM; in test [5], 35 µM; in [6], more than 100 µM. Moreover, the TGI was 25.3 µM in test [7], 25.1 µM in test [8] and more than 100 µM in test [9].

Turning to `c1csc(-c2ccc(-c3ccc(-c4ccc(-c5cccs5)s4)s3)s2)c1`, the TGI was 53.8 µM in test [10]; more than 100 µM in test [2]; more than 100 µM in test [3]; more than 100 µM in [4]; more than 100 µM in test [5]; more than 100 µM in test [6]. Moreover, the TGI in [7] is more than 100 µM.

For the origin of these results see PubChem BioAssay (NCI).
